What was measured:
[1] = Metabolic stability in plasma (beagle dogs); conditions: dog
Method: (§1) We evaluated the metabolic stability of Kylo-0603 in the plasma of CD-1 mice, Sprague–Dawley (SD) rats, beagle dogs, cynomolgus monkeys, and humans. The plasma from the five species was mixed with Kylo-0603 (2 μM) and incubated at 37°C in a thermostatic water tank. The plasma concentrations of Kylo-0603 were monitored via LC-MS/MS at 0, 10, 30, 60, and 120 min.

[2] = in vitro; conditions: cynomolgus monkey, plasma
Method: as §1

[3] = test system: liver of the MASH mouse models (F2 ~ 3); experiment: Gene expression analysis (transcriptome sequencing) in liver of MASH mouse models; format: in vivo, C57BL/6J mice
Method: Transcriptome sequencing was performed on the Illumina sequencing platform, and the library sequencing and biotechnological analysis were performed by Beijing Novozymes Technology Co.
To explore the mechanism by which Kylo-0603 promotes lipid metabolism, we used Illumina’s NEBNext® UtraTM RNA Library Prep Kit to examine the expression of relevant genes in the livers of the MASH mouse models (F2 ~ 3) after Kylo-0603 administration (Fig 8). We first examined the expression of THR-regulated genes, including iodothyronine deiodinase 1 (Dio1), malic enzyme 1 (Me1), and thyroid hormone responsive (Thrsp). Me1 encodes an enzyme that catalyzes the conversion of malate to pyruvate while concomitantly generating NADPH from NADP, and its upregulation promotes energy metabolism. Thrsp is mainly a nuclear protein induced by thyroid hormones, carbohydrate intake, adipose tissue differentiation and lactation and plays an important role in the regulation of lipid metabolism. […] LDL-R (low-density lipoprotein receptor) promotes the cellular uptake of LDL and facilitates cholesterol degradation. […] This finding was consistent with a dose-dependent reduction in the serum LDL-C level (Fig 9A). […] This therapeutic effect was validated by assessing liver histopathology in animal models. Kylo-0603 inhibited the genes encoding the inflammatory factors Tnfrsf1a, IL6, IL17rb, and IL17ra (Fig 9B).
Fig 9 Effects of Kylo-0603 on the expression of related genes of the MASH mouse models. Total RNA was extracted from the frozen liver tissue of the MASH mouse models (F2 ~ 3), and the mice were injected daily with saline or Kylo-0603 at a dosage of 0.1–3 mg/kg/day. Transcriptome sequencing is based on the Illumina sequencing platform. The relative expression of a gene was calculated by normalizing the true expression level of the target gene to the expression level of that gene in the control group.

[4] = Metabolic stability in plasma (SD rats); conditions: SD rat plasma
Method: as §1

## CC(=O)N[C@H]1[C@H](OCCCCCCNC(=O)CCOCC(COCCC(=O)NCCCCCCO[C@@H]2O[C@H](CO)[C@H](O)[C@H](O)[C@H]2NC(C)=O)(COCCC(=O)NCCCCCCO[C@@H]2O[C@H](CO)[C@H](O)[C@H](O)[C@H]2NC(C)=O)NC(=O)CCCCCNC(=O)COc2cc(C)c(Cc3ccc(O)c(C(C)C)c3)c(C)c2)O[C@H](CO)[C@H](O)[C@@H]1O [Kylo-0603]
[1]
  plasma stability: unstable
[2]
  half-life at 2 μM: > 6.21 h
[3]
  Atgl expression: dose-responsive elevation
  Cpt1a expression: dose-dependent upregulation
  Pdk4 expression: significant increases
  Srebf1 and Scd1 expression: coordinated downregulation
  genes encoding the inflammatory factors Tnfrsf1a, IL6, IL17rb, IL17ra: inhibited
[3]; dose-dependent
  LDL-R gene expression: upregulated
  expression of Dio1, Thrsp and Me1: significantly upregulated
  peroxisome-related genes: upregulation
[3]; with increasing doses
  expression of collagen synthesis genes: significantly suppressed
[4]
  plasma stability: stable

From PMC12435690, “KYLO-0603, a novel liver-targeting, thyroid hormone receptor-β agonist for the inhibition of MASH progression” (PLOS One, 2025)
